Tests used:
Type in all cases: biochemical
[1] = target: human JAK2 (Homo sapiens (Human), UniProt O60674); experiment: In vitro JAK kinase assay (HTRF, phosphorylation of a biotinylated peptide), JAK2; design: key to JAK2 IC50 (nM): +indicates an IC50 of ≦100 nM; ++indicates an IC50 of ≦1000 nM; +++indicates an IC50 of ≦2000 nM; ++++indicates an IC50 of >2000 nM; +++++indicates that the IC50 was greater than the highest concentration tested; conditions: 1 mM ATP
Method: (§1) Compounds herein were tested for inhibitory activity of JAK targets according to the following in vitro assay described in Park et al., Analytical Biochemistry 1999, 269, 94-104. The catalytic domains of human JAK1 (a.a. 837-1142), JAK2 (a.a. 828-1132) and JAK3 (a.a. 781-1124) were expressed using baculovirus in insect cells and purified. The catalytic activity of JAK1, JAK2 or JAK3 was assayed by measuring the phosphorylation of a biotinylated peptide. The phosphorylated peptide was detected by homogenous time resolved fluorescence (HTRF). IC50s of compounds were measured for each kinase in the 40 μL reactions that contain the enzyme, ATP and 500 nM peptide in 50 mM Tris (pH 7.8) buffer with 100 mM NaCl, 5 mM DTT, and 0.1 mg/mL (0.01%) BSA. For the 1 mM IC50 measurements, ATP concentration in the reactions was 1 mM. Reactions were carried out at room temperature for 1 hour and then stopped with 20 μL 45 mM EDTA, 300 nM SA-APC, 6 nM Eu-Py20 in assay buffer (Perkin Elmer, Boston, Mass.). Binding to the Europium labeled antibody took place for 40 minutes and HTRF signal was measured on a PHERA star plate reader (BMG, Cary, N.C.). The Example compounds were each tested in the Example A assay (see Table 1 for data for the compounds of the examples as tested by the assay of Example A at 1 mM ATP).

[2] = target: human JAK1 (Homo sapiens, UniProt P23458); experiment: In vitro JAK kinase assay (HTRF, phosphorylation of a biotinylated peptide), JAK1; conditions: 1 mM ATP
Method: as §1

[3] = system: human JAK1; experiment: as above; conditions: ratio of IC50s, 1 mM ATP
Method: as §1

Chain of human JAK2 (O60674 828-1132): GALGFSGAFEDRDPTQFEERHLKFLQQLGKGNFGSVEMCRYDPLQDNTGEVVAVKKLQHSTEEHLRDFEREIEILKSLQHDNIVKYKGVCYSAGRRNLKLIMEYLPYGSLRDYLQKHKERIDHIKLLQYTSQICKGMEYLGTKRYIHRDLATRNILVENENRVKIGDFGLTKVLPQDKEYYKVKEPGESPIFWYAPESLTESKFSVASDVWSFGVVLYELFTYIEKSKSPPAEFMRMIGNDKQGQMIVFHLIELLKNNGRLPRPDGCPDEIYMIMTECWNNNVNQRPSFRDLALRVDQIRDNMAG

SMILES | JAK2 IC50 (nM) [1] | IC50 [2] [µM] | JAK2/JAK1 [3] | IC50 [1] [µM]
C[C@@H](O)c1nc2cnc3ccsc3c2n1[C@H]1CCCOC1 [Example 1, (1R)-1-{1-[(3S)-Tetrahydro-2H-pyran-3-yl]-1H-imidazo[4,5-d]thieno[3,2-b]pyridin-2-yl}ethanol] | +++++ | ≤ 1 | >3 | –
C[C@@H](O)c1nc2cnc3ccsc3c2n1[C@H]1CC[C@H](O)CC1 [Example 3, trans-4-{2-[(1R)-1-Hydroxyethyl]-1H-imidazo[4,5-d]thieno[3,2-b]pyridin-1-yl}cyclohexanol] | +++++ | ≤ 1 | >10 | –
C[C@@H](O)c1nc2cnc3ccsc3c2n1[C@H]1CC[C@H](NCC(F)(F)F)CC1 [Example 4, (1R)-1-(1-{trans-4-[(2,2,2-Trifluoroethyl)amino]cyclohexyl}-1H-imidazo[4,5-d]thieno[3,2-b]pyridin-2-yl)ethanol] | – | ≤ 0.1 | >10 | ≤ 2
C[C@@H](O)c1nc2cnc3ccsc3c2n1[C@H]1CC[C@H](CCS(C)(=O)=O)CC1 [Example 5, (1R)-1-(1-{trans-4-[2-(Methylsulfonyl)ethyl]cyclohexyl}-1H-imidazo[4,5-d]thieno[3,2-b]pyridin-2-yl)ethanol] | +++++ | ≤ 0.1 | >10 | –
C[C@@H](O)c1nc2cnc3ccsc3c2n1[C@H]1CC[C@@H](n2cncn2)CC1 [Example 6, (1R)-1-{1-[cis-4-(1H-1,2,4-Triazol-1-yl)cyclohexyl]-1H-imidazo[4,5-d]thieno[3,2-b]pyridin-2-yl}ethanol] | +++++ | ≤ 2 | >6 | –
C[C@@H](O)c1nc2cnc3ccsc3c2n1[C@H]1CC[C@@H](C#N)CC1 [Example 7, cis-4-{2-[(1R)-1-Hydroxyethyl]-1H-imidazo[4,5-d]thieno[3,2-b]pyridin-1-yl}cyclohexanecarbonitrile] | – | ≤ 0.1 | >10 | ≤ 2
C[C@@H](O)c1nc2cnc3ccsc3c2n1[C@H]1CC[C@H](CCC#N)CC1 [Example 8, 3-(trans-4-{2-[(1R)-1-Hydroxyethyl]-1H-imidazo[4,5-d]thieno[3,2-b]pyridin-1-yl}cyclohexyl)propane nitrile] | – | ≤ 0.1 | >10 | ≤ 1
C[C@@H](O)c1nc2cnc3ccsc3c2n1[C@H]1CC[C@H](CC#N)CC1.Cl [Example 10, (trans-4-{2-[(1R)-1-Hydroxyethyl]-1H-imidazo[4,5-d]thieno[3,2-b]pyridin-1-yl}cyclohexyl)acetonitrile HCl salt] | – | ≤ 0.1 | >10 | ≤ 1
C[C@@H](O)c1nc2cnc3ccsc3c2n1[C@H]1CC[C@H](CO)CC1 [Example 11, (1R)-1-{1-[trans-4-(Hydroxymethyl)cyclohexyl]-1H-imidazo[4,5-d]thieno[3,2-b]pyridin-2-yl}ethanol] | +++++ | ≤ 0.1 | >10 | –
C[C@@H](O)c1nc2cnc3ccsc3c2n1[C@H]1CC[C@H](CF)CC1 [Example 12, (1R)-1-{1-[trans-4-(Fluoromethyl)cyclohexyl]-1H-imidazo[4,5-d]thieno[3,2-b]pyridin-2-yl}ethanol] | – | ≤ 0.1 | >10 | ≤ 2
C[C@@H](O)c1nc2cnc3ccsc3c2n1C1CCCCC1 [Example 13, (1R)-1-(1-Cyclohexyl-1H-imidazo[4,5-d]thieno[3,2-b]pyridin-2-yl)ethanol] | – | ≤ 0.1 | >10 | > 2
CNS(=O)(=O)C[C@H]1CC[C@H](n2c([C@@H](C)O)nc3cnc4ccsc4c32)CC1 [Example 14, 1-(trans-4-{2-[(1R)-1-hydroxyethyl]-1H-imidazo[4,5-d]thieno[3,2-b]pyridin-1-yl}cyclohexyl)-N-methylmethanesulfonamide] | +++++ | ≤ 1 | >5 | –
C[C@@H](O)c1nc2cnc3ccsc3c2n1C1CCN(CC(F)(F)F)CC1 [Example 15, (1R)-1-{1-[1-(2,2,2-Trifluoroethyl)piperidin-4-yl]-1H-imidazo[4,5-d]thieno[3,2-b]pyridin-2-yl}ethanol] | +++++ | ≤ 2 | >9 | –
C[C@@H](O)c1nc2cnc3ccsc3c2n1C1CCN(CCC#N)CC1 [Example 16, 3-(4-{2-[(1R)-1-Hydroxyethyl]-1H-imidazo[4,5-d]thieno[3,2-b]pyridin-1-yl}piperidin-1-yl)propanenitrile] | – | ≤ 1 | >10 | > 2
N#CC[C@H]1CC[C@H](n2c(CO)nc3cnc4ccsc4c32)CC1 [Example 17, {trans-4-[2-(Hydroxymethyl)-1H-imidazo[4,5-b]thieno[3,2-b]pyridin-1-yl]cyclohexyl}acetonitrile] | – | ≤ 0.1 | >10 | ≤ 1
CS(=O)(=O)NCc1nc2cnc3ccsc3c2n1[C@H]1CC[C@H](CC#N)CC1 [Example 18, N-({1-[trans-4-(Cyanomethyl)cyclohexyl]-1H-imidazo[4,5-d]thieno[3,2-b]pyridin-2-yl}methyl)methanesulfonamide] | – | ≤ 0.1 | >10 | ≤ 1
C[C@@H](O)c1nc2cnc3ccsc3c2n1[C@H]1CCC(CO)OC1 (stereo partly drawn) [Example 19, (1R)-1-{1-[(3S)-6-(Hydroxymethyl)tetrahydro-2H-pyran-3-yl]-1H-imidazo[4,5-d]thieno[3,2-b]pyridin-2-yl}ethanol] | +++++ | ≤ 1 | >10 | –
C[C@@H](O)c1nc2cnc3ccsc3c2n1[C@H]1CC[C@H](CC#N)OC1 [Example 20, ((2R,5S)-5-{2-[(1R)-1-Hydroxyethyl]-1H-imidazo[4,5-d]thieno[3,2-b]pyridin-1-yl}tetrahydro-2H-pyran-2-yl)acetonitrile] | – | ≤ 0.1 | >10 | ≤ 1
C[C@@H](O)c1nc2cnc3ccsc3c2n1[C@H]1CC[C@@H](CC#N)OC1 [Example 21, ((2S,5S)-5-{2-[(1R)-1-Hydroxyethyl]-1H-imidazo[4,5-d]thieno[3,2-b]pyridin-1-yl}tetrahydro-2H-pyran-2-yl)acetonitrile] | +++++ | ≤ 1 | >10 | –
CS(=O)(=O)NCc1nc2cnc3ccsc3c2n1[C@H]1CC2CCC1C2 (stereo partly drawn) [Example 22, N-((1-((2S)-Bicyclo[2.2.1]heptan-2-yl)-1H-imidazo[4,5-d]thieno[3,2-b]pyridin-2-yl)methyl)methanesulfonamide] | +++++ | ≤ 1 | >4 | –
C[C@@H](O)c1cc2cnc3ccsc3c2n1[C@H]1CC[C@H](CC#N)CC1 [Example 23, (trans-4-{7-[(1R)-1-Hydroxyethyl]-8H-pyrrolo[2,3-d]thieno[3,2-b]pyridin-8-yl}cyclohexyl)acetonitrile] | – | ≤ 0.1 | >10 | ≤ 1
N#CC[C@H]1CC[C@H](n2/c(=N/C#N)[nH]c3cnc4ccsc4c32)CC1.O=C(O)C(F)(F)F [Example 25, {(2E)-1-[trans-4-(Cyanomethyl)cyclohexyl]-1,3-dihydro-2H-imidazo[4,5-d]thieno[3,2-b]pyridin-2-ylidene}cyanamide trifluoroacetate] | – | ≤ 0.1 | >6 | ≤ 1
N#CC[C@H]1CC[C@H](n2c(C3CC3)nc3cnc4ccsc4c32)CC1 [Example 26, [trans-4-(2-Cyclopropyl-1H-imidazo[4,5-b]thieno[3,2-b]pyridin-1-yl)cyclohexyl]acetonitrile] | – | ≤ 0.1 | >10 | ≤ 1
CC(C)c1nc2cnc3ccsc3c2n1[C@H]1CC[C@H](CC#N)CC1 [Example 27, [trans-4-(2-Isopropyl-1H-imidazo[4,5-d]thieno[3,2-b]pyridin-1-yl)cyclohexyl]acetonitrile] | – | ≤ 0.1 | >10 | ≤ 1
N#CC[C@H]1CC[C@H](n2c(C3CNC3)nc3cnc4ccsc4c32)CC1 [Example 28, [trans-4-(2-Azetidin-3-yl-1H-imidazo[4,5-d]thieno[3,2-b]pyridin-1-yl)cyclohexyl]acetonitrile] | +++++ | ≤ 2 | >7 | –

From patent US9777017B2, “Tricyclic fused thiophene derivatives as JAK inhibitors” (Incyte Corporation, priority 2012, dated 2017)
